Biological target: T1, Human full-length diacylglycerol:acylCoA acyltransferase 1 (DGAT-1) (Homo sapiens, UniProt O75907)
T1 sequence (O75907 1-488): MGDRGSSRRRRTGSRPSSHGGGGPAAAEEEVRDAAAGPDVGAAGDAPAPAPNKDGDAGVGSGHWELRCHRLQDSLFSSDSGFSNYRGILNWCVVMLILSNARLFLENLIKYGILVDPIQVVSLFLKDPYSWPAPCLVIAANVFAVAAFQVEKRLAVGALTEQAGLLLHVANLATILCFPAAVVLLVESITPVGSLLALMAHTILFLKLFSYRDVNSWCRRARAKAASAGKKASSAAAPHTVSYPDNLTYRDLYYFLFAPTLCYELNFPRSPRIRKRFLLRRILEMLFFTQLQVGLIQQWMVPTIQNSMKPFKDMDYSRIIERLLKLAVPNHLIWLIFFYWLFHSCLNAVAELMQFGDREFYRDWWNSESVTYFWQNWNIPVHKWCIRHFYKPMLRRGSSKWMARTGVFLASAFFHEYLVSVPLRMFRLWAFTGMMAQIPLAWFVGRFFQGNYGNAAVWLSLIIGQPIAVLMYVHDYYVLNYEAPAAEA
Assay: In vitro assay for inhibition of DGAT-1 activity (DGAT 1 Reduced Microsome Multidose Assay)
Conditions: average where n > 1

[1] = Trial 2 Human IC50, Trial 2: as Trial 4 except eleven concentrations of inhibitor instead of eight
[2] = Trial 3 Human IC50, Trial 3: as Trial 2 except compounds serially diluted in a different laboratory
[3] = Trial 1 Human IC50, Trial 1: as Trial 4 except microsomes at 25 μg/mL instead of 5 μg/mL
[4] = Trial 4 Human IC50, Trial 4: eight concentrations of inhibitor, microsomes 5 μg/mL

Experimental: Human full-length diacylglycerol:acylCoA acyltransferase 1 (DGAT-1) was expressed in Sf9 insect cells which are then lysed and a crude membrane fraction (105,000×g pellet) was prepared.
Inhibitors in DMSO were pre-incubated with membranes before initiating the DGAT-1 reaction by the addition of decanoylCoA. […] The inhibitors were present at a range of eight concentrations to generate an apparent IC50 for each compound. […] Specifically, the eight concentrations used were 3 μM, 1 μM, 300 nM, 100 nM, 30 nM, 10 nM, 3 nM and 1 nM.
The reactions were allowed to proceed for 1.5 hours at room temperature and then terminated by the addition of 20 μl of EDTA (40 mM). Reaction mixture is then mixed by trituration with 30 μl of Microscint™-E (Perkin Elmer). […] Four separate trials were conducted. The method of analysis of Trial 1 was the same as Trial 4 (described above) except microsomes were utilized at 25 μg/mL instead of 5 μg/mL. The method of analysis of Trial 2 was the same as Trial 4 (described above) except eleven (11) concentrations of inhibitor were employed instead of eight (8). The method of analysis of Trial 3 was the same as Trial 2 except the compounds were serially diluted in a different laboratory.
Where this DGAT-1 inhibition assay was performed on a compound more than once, an average is provided for that compound.

| SMILES | IC50 [3] | IC50 [4] | further results |
| --- | --- | --- | --- |
| Nc1ncnc2c1C(=O)N(c1ccc(C3CCN(C(=O)Cc4ccccc4)CC3)cc1)CCO2 [Example 7Y] |  |  | IC50 [1]: 45.7 nM; IC50 [2]: 98.6 nM |
| COC(C)(C)Cc1ccc(N2C[C@@H](C)Oc3ncnc(N)c3C2=O)cc1 [Example 1AG] |  | 45.2 nM |  |
| Nc1ncnc2c1C(=O)N(c1ccc(C3CCN(C(=O)CC4CCCC4)CC3)cc1)CCO2 [Example 7AE] |  |  | IC50 [1]: 41.2 nM; IC50 [2]: 92.3 nM |
| C[C@@H]1CN(c2ccc(Cl)c(Cl)c2)C(=O)c2c(N)ncnc2O1 [Example 1AB, (8R)-4-amino-6-(3,4-dichlorophenyl)-8-methyl-7,8-dihydropyrimido[5,4-F][1,4]oxazepin-5(6H)-one] |  | 24.8 nM |  |
| CCC(O)(CC)c1ccc(N2C[C@@H](C)Oc3ncnc(N)c3C2=O)cc1 [Example 1AP, (8R)-4-Amino-6-[4-(1-ethyl-1-hydroxypropyl)phenyl]-8-methyl-7,8-dihydropyrimido[5,4-f][1,4]oxazepin-5(6H)-one] |  | 29.4 nM |  |
| CC(C)(O)CC[C@H]1CC[C@H](c2ccc(N3CCOc4ncnc(N)c4C3=O)cc2)CC1 [Example 1A-1] | 104 nM |  |  |
| C[C@@H]1CN(c2ccc(C3(O)CCCCC3)cc2)C(=O)c2c(N)ncnc2O1 [Example 1AJ] |  | 35.6 nM |  |
| C[C@@H]1CN(c2ccc(C(O)(C(F)(F)F)C(F)(F)F)cc2)C(=O)c2c(N)ncnc2O1 [Example 1V] |  | 39.5 nM |  |
| Cc1cc(C(=O)N2CCC(c3ccc(N4CCOc5ncnc(N)c5C4=O)cc3)CC2)no1 [Example 7V] |  |  | IC50 [1]: 113 nM; IC50 [2]: 224 nM |
| Cc1ccc(N2C[C@@H](C)Oc3ncnc(N)c3C2=O)cc1 [Example 1P, (8R)-4-amino-8-methyl-6-(4-methylphenyl)-7,8-dihydropyrimido[5,4-f]-[1,4]oxazepin-5(6H)-one] |  | 52.8 nM |  |
| CS(=O)(=O)CC(=O)N1CCC(c2ccc(N3CCOc4ncnc(N)c4C3=O)cc2)CC1 [Example 7T] |  |  | IC50 [1]: 123 nM; IC50 [2]: 217 nM |
| C[C@@H]1CN(c2ccc([C@@H](O)C(C)(C)C)cc2)C(=O)c2c(N)ncnc2O1 [Example 1AC] |  | 55.4 nM |  |
| Nc1ncnc2c1C(=O)N(c1ccc(C3CCN(C(=O)CC4CCCO4)CC3)cc1)CCO2 (centres unmarked) [Example 7R] |  |  | IC50 [1]: 50.1 nM; IC50 [2]: 170 nM |
| CC(C)c1ccc(N2CCOc3ncnc(N)c3C2=O)cc1 [Example 1H] |  |  | IC50 [1]: 17.1 nM; IC50 [2]: 26.3 nM |
| COCC(C)(C)c1ccc(N2C[C@@H](C)Oc3ncnc(N)c3C2=O)cc1 [Example 1AA] |  | 42.7 nM |  |
| Nc1ncnc2c1C(=O)N(c1ccc(C3CCN(C(=O)C4CCCO4)CC3)cc1)CCO2 (centres unmarked) [Example 7X] |  |  | IC50 [1]: 88.4 nM; IC50 [2]: 157 nM |
| C[C@@H]1CN(c2ccc(C3(C(N)=O)CCC3)cc2)C(=O)c2c(N)ncnc2O1 [Example 1AH, 1-{4-[(8R)-4-amino-8-methyl-5-oxo-7,8-dihydropyrimido[5,4-f][1,4]oxazepin-6(5H)-yl]phenyl}cyclobutanecarboxamide] |  | 78.2 nM |  |
| C[C@@H]1CN(c2ccc(C3(C(N)=O)CCCC3)cc2)C(=O)c2c(N)ncnc2O1 [Example 1AF, 1-{4-[(8R)-4-amino-8-methyl-5-oxo-7,8-dihydropyrimido[5,4-f][1,4]oxazepin-6(5H)-yl]phenyl}cyclopentanecarboxamide] |  | 117 nM |  |
| C[C@@H]1CN(c2ccc(C(C)(C)C)cc2)C(=O)c2c(N)ncnc2O1 [Example 1I, (8R)-4-amino-6-(4-tert-butylphenyl)-8-methyl-7,8-dihydropyrimido[5,4-f]-[1,4]oxazepin-5(6H)-one] |  | 16.3 nM | IC50 [1]: 18.4 nM; IC50 [2]: 33.7 nM |
| C[C@@H]1CN(c2ccc(C(O)C(F)(F)F)cc2)C(=O)c2c(N)ncnc2O1 (some centres unmarked) [Example 1R] |  | 37.7 nM |  |
| COc1nc(N)c2c(n1)O[C@H](C)CN(c1ccc(C(C)(C)C)cc1)C2=O [Example 1N] |  | 44.5 nM |  |
| Cc1ncoc1C(=O)N1CCC(c2ccc(N3CCOc4ncnc(N)c4C3=O)cc2)CC1 [Example 7K] |  |  | IC50 [1]: 130 nM; IC50 [2]: 258 nM |
| CC(C)c1ccc(N2C[C@@H](C)Oc3ncnc(N)c3C2=O)cc1 [Example 1K, (8R)-4-amino-6-(4-isopropylphenyl)-8-methyl-7,8-dihydropyrimido[5,4-f]-[1,4]oxazepin-5(6H)-one] |  | 17.6 nM |  |
| Cc1ocnc1C(=O)N1CCC(c2ccc(N3CCOc4ncnc(N)c4C3=O)cc2)CC1 [Example 7G] |  |  | IC50 [1]: 88.2 nM; IC50 [2]: 290 nM |

Now from value to molecule, other results behind:

| IC50 [3] | IC50 [4] | SMILES | further results |
| --- | --- | --- | --- |
| 139 nM |  | Nc1ncnc2c1C(=O)N(c1ccc([C@H]3CC[C@H](CC(=O)N4CC(F)C4)CC3)cc1)CCO2 [Example 6AM] |  |
| 65.5 nM |  | CCCN(CCO)C(=O)C[C@H]1CC[C@H](c2ccc(N3CCOc4ncnc(N)c4C3=O)cc2)CC1 [Example 6AJ] |  |
|  | 1670 nM | C[C@@H]1CN(c2ccc(C(=O)N(C)C)cc2)C(=O)c2c(N)ncnc2O1 [Example 6BG] |  |
| 37.5 nM |  | CCN(CCCCO)C(=O)C[C@H]1CC[C@H](c2ccc(N3CCOc4ncnc(N)c4C3=O)cc2)CC1 [Example 6N] |  |
| 100 nM |  | Nc1ncnc2c1C(=O)N(c1ccc([C@H]3CC[C@H](CC(=O)N4CCCC4CO)CC3)cc1)CCO2 (some centres unmarked) [Example 6X] |  |
| 45.7 nM |  | Nc1ncnc2c1C(=O)N(c1ccc([C@H]3CC[C@H](CC(=O)N4CCCC(CO)C4)CC3)cc1)CCO2 (some centres unmarked) [Example 6M] |  |
| 57.8 nM |  | COCC1CCN(C(=O)C[C@H]2CC[C@H](c3ccc(N4CCOc5ncnc(N)c5C4=O)cc3)CC2)CC1 [Example 6I] |  |
| 129 nM |  | CCN(C(=O)C[C@H]1CC[C@H](c2ccc(N3CCOc4ncnc(N)c4C3=O)cc2)CC1)C(C)(C)CO [Example 6U] |  |
| 147 nM |  | CC1C(=O)NCCN1C(=O)C[C@H]1CC[C@H](c2ccc(N3CCOc4ncnc(N)c4C3=O)cc2)CC1 (some centres unmarked) [Example 6BB] |  |
| 103 nM |  | CN(CC1CCOCC1)C(=O)C[C@H]1CC[C@H](c2ccc(N3CCOc4ncnc(N)c4C3=O)cc2)CC1 [Example 6D] |  |
| 54.7 nM |  | CCOC1CCN(C(=O)C[C@H]2CC[C@H](c3ccc(N4CCOc5ncnc(N)c5C4=O)cc3)CC2)CC1 [Example 6AB] |  |
| 105 nM |  | Nc1ncnc2c1C(=O)N(c1ccc([C@H]3CC[C@H](CC(=O)N4CCC(F)(F)CC4)CC3)cc1)CCO2 [Example 6L] |  |
| 60.1 nM |  | CO[C@@H]1CCN(C(=O)C[C@H]2CC[C@H](c3ccc(N4CCOc5ncnc(N)c5C4=O)cc3)CC2)C1 [Example 6BA] |  |
| 47.4 nM |  | CCN(Cc1nccn1C)C(=O)C[C@H]1CC[C@H](c2ccc(N3CCOc4ncnc(N)c4C3=O)cc2)CC1 [Example 6AS] |  |
| 39.3 nM |  | CC(O)C1CCN(C(=O)C[C@H]2CC[C@H](c3ccc(N4CCOc5ncnc(N)c5C4=O)cc3)CC2)CC1 (some centres unmarked) [Example 6P] |  |
| 67 nM |  | CCC(C)CN(CCO)C(=O)C[C@H]1CC[C@H](c2ccc(N3CCOc4ncnc(N)c4C3=O)cc2)CC1 (some centres unmarked) [Example 6AH] |  |
| 162 nM |  | Nc1ncnc2c1C(=O)N(c1ccc([C@H]3CC[C@H](CC(=O)N4CCC[C@@H](O)C4)CC3)cc1)CCO2 [Example 6O] |  |
| 167 nM |  | CC(=O)N1CCN(C(=O)C[C@H]2CC[C@H](c3ccc(N4CCOc5ncnc(N)c5C4=O)cc3)CC2)CC1 [Example 6Y] |  |
|  | 8.1 nM | Cc1noc(C[C@H]2CC[C@H](c3ccc(N4C[C@@H](C)Oc5ncnc(N)c5C4=O)cc3)CC2)n1 [Example 2C] |  |
| 72.1 nM |  | CO[C@H]1CCN(C(=O)C[C@H]2CC[C@H](c3ccc(N4CCOc5ncnc(N)c5C4=O)cc3)CC2)C1 [Example 6E] |  |
| 40 nM |  | N#CC1CCCN(C(=O)C[C@H]2CC[C@H](c3ccc(N4CCOc5ncnc(N)c5C4=O)cc3)CC2)C1 (some centres unmarked) [Example 6AO] |  |

— patent publication US20100204119A1, “4-AMINO-5-OXO-7,8-DIHYDROPYRIMIDO[5,4-F][1,4]OXAZEPIN-6(5H)-YL PHENYL DERIVATIVES” (Pfizer Inc, priority 2009, published 2010)
